Experimental findings from patent US20090131356A1, “miR-15, miR-26, miR-31, miR-145, miR-147, miR-188, miR-215, miR-216, miR-331, mmu-miR-292-3P REGULATED GENES AND PATHWAYS AS TARGETS FOR THERAPEUTIC INTERVENTION” (ASURAGEN, INC., priority 2006, published 2009) are described below.

The subject of data set [1] is Du145 human prostate cancer cells. Description: Long-term growth curve with repeated electroporation, Du145. As to conditions: 1.6 μM miRNA electroporated, repeated on days 7 and 14, day 20. The class given is cell-based. The procedure: The inventors assessed the therapeutic effect of hsa-miR-15a for prostate cancer by using the Du145 human prostate cancer cell line, derived from a brain metastasis (Stone et al., 1978). The inventors conducted growth curve experiments in the presence of miRNA for up to 20 days. Since in vitro transfections of naked interfering RNAs, such as synthetic miRNA, are transient by nature and compromised by the dilution of the miRNA during ongoing cell divisions, miRNA was administered at multiple time points (Bartlett et al., 2006; Bartlett et al., 2007). To accommodate miRNA delivery into a large quantity of cells, the inventors employed the electroporation method for delivery of hsa-miR-15a or negative control miRNA into Du145 human prostate cancer cells. Briefly, 0.5×10^6 Du145 cells were electroporated with 1.6 μM hsa-miR-15a or negative control using the BioRad Gene Pulser Xcell™ instrument (BioRad Laboratories Inc., Hercules, Calif., USA), seeded and propagated in regular growth medium. Experiments were carried out in triplicates. When the control cells reached confluence (days 7 and 14), cells were harvested, counted and electroporated again with the respective miRNAs. To ensure similar treatment of both conditions as well as to accommodate exponential growth, the cell numbers used for the second and third electroporation were titrated down to the lowest count. The population doubling was calculated from these electroporation events using the formula PD=ln(Nf/N0)/ln2 and adjusting for the fact that approximately 72% of newly seeded cells adhere to the plate. Cell counts were extrapolated and plotted on a linear scale (FIG. 10). Arrows represent electroporation days. Standard deviations are included in the graphs.
To evaluate the therapeutic activity of hsa-miR-147 over an extended period of time, the inventors conducted growth curve experiments in the presence of miRNA for up to 21 days. Since in vitro transfections of naked interfering RNAs, such as synthetic miRNA, are transient by nature and compromised by the dilution of the oligo during ongoing cell divisions, miRNA was administered at multiple time points (Bartlett et al., 2006; Bartlett et al., 2007). To accommodate miRNA delivery into a large quantity of cells, the inventors employed the electroporation method to delivery hsa-miR-147 or negative control miRNA into PC3 and Du145 human prostate cancer cells. […] When the control cells reached confluence (days 7 and 14), cells were harvested, counted and electroporated again with the respective miRNAs. […] The population doubling was calculated from these electroporation events using the formula PD=ln(Nf/N0)/ln2 and adjusting for the fact that approximately 72% of newly seeded cells adhere to the plate. […]

The subject of data set [2] is human H460 lung cancer xenografts. Description: Established H460 lung tumor xenograft, intratumoral injection of lipid-formulated miRNA. The class given is in vivo, NOD/SCID mice. As to conditions: intratumoral 6.25 μg on days 11, 14 and 17, siPORT amine formulation; day 19. An excerpt: Delivery of hsa-miR-147 into human lung cancer cells prior to implantation into the animal inhibited the formation of lung tumor xenografts. […] To explore this possibility, 3×10^6 human H460 non-small cell lung cancer cells were mixed with BD Matrigel™, (BD Biosciences; San Jose, Calif., USA; cat. no. 356237) in a 1:1 ratio and subcutaneously injected into the lower back of each of 23 NOD/SCID mice (Charles River Laboratories, Inc.; Wilmington, Mass., USA). Once animals developed palpable tumors (day 11 post xenograft implantation), each animal in a group of six received intratumoral injections of 6.25 μg hsa-miR-147 (Dharmacon, Lafayette, Colo.) formulated with the lipid-based siPORT™ amine delivery agent (Ambion, Austin, Tex.; cat. no. AM4502) on days 11, 14 and 17. A control group of six animals each received intratumoral injections of 6.25 μg negative control miRNA (NC; Dharmacon, Lafayette, Colo.), following the same injection schedule that was used for hsa-miR-147. Given an average mouse weight of 20 g, this dose equals 0.3125 mg/kg. […] Caliper measurements of tumors were taken every 1-2 days, and tumor volumes were calculated using the formula, Volume=length×width×width/2, in which the length is greater than the width.

Data set [3] deals with human A549 lung cancer xenografts. Description: A549 lung cancer xenograft, cells electroporated with miRNA before implantation. To be noted: cells electroporated with 5 μg miRNA, injected subcutaneously; tumors measured days 14-20; vs negative control miRNA. The class given is in vivo, NOD/SCID mice. The procedure:
The inventors assessed the growth-inhibitory activity of hsa-miR-147 in a human lung cancer xenograft grown in immunodeficient mice. Hsa-miR-147 was delivered into A549 lung cancer cells via electroporation using the BioRad GenePulserXcell™ instrument with the following settings: 15×10^6 cells with 5 μg miRNA in 200 μl OptiMEM, square wave pulse at 150 V for 10 ms. A total of 30×10^6 A549 cells was used to 5×10^6 electroporated cells were mixed with matrigel in a 1:1 ratio and injected subcutaneously into the flank of NOD/SCID mice. As a negative control, A549 cells were electroporated with negative control miRNA (pre-miR-NC#2, Ambion) as describe above. NC miRNA-treated cells were injected into the opposite flank of the same animal to control for animal-to-animal variability. A total of 30×10^6 A549 cells per hsa-miR-147 and NC was used to accommodate 5 injections into 5 animals. Size measurements of tumors started 14 days after injection once tumors have reached a measurable size. Length and width of tumors were determined every day for the following 6 days. Tumor volumes were calculated using the formula V=length×width^2/2 in which the length is greater than the width. Tumor volumes derived from NC-treated cells and hsa-miR-147-treated cells were averaged and plotted over time (FIG. 5). Standard deviations are shown in the graph. […]

Consider “hsa-miR-147: Synthetic pre-miR-147 (Ambion AM17100; Dharmacon in vivo); mature sequence GUGUGUGGAAAUGCUUCUGC, MIMAT0000251, SEQ ID NO:114 (synthetic pre-miR (Ambion/Dharmacon), chemistry not given here; listed as Homo sapiens)”, for which the “cells relative to cells electroporated with negative control miRNA” value in data set [1] amounted to 2.90%. Further, in data set [1] (relative to proliferation of control cells (100%)), the “inhibition of Du145 cell growth” value was determined as 97.1%. Moreover, the average tumor size in data set [2] was 260 mm^3. Further, the “tumor growth of A549 xenograft” value in data set [3] is “inhibited tumor growth in vivo”.
